DC50 data for 14 molecules are collected here from US12226424B2, “Target protein degradation compounds, their anti-tumor use, their intermediates and use of intermediates” (ShanghaiTech University, priority 2018, dated 2025).

The assay relates to CDK4/6 protein. Briefly: Western-blot determination of CDK4/6 protein degradation (DC50) in T-47D cells. It is filed as cell-based, human.
Where [1] appears, read: 24 h drug treatment, read-out: DC50(nM)/T-47D cell line.

Molecules are shown by their SMILES. Where two headings read alike, the source gives them in different places.

As to `Cc1nc2c(F)cc(-c3nc(Nc4ccc(CN5CCN(C(=O)CCCCCCSc6cccc7c6CN(C6CCC(=O)NC6=O)C7=O)CC5)cn4)ncc3F)cc2n1C(C)C` (centres unmarked) [SIAIS262169, 3-(4-((7-(4-((6-((5-fluoro-4-(4-fluoro-1-isopropyl-2-methyl-1H-benzo[d]imidazol-6-yl)pyrimidin-2-yl)amino)pyridin-3-yl)methyl)piperazin-1-yl)-7-oxoheptyl)thio)-1-oxoisoindolin-2-yl)piperidine-2,6-dione], under setting [1], the DC50 amounted to 5 nM.

With `CN(C)C(=O)c1cc2cnc(Nc3ccc(N4CCN(C(=O)COCCOCCSc5cccc6c5CN(C5CCC(=O)NC5=O)C6=O)CC4)cn3)nc2n1C1CCCC1` (centres unmarked) [SIAIS219107, 7-cyclopentyl-2-((5-(4-(2-(2-(2-((2-(2,6-dioxopiperidin-3-yl)-1-oxoisoindolin-4-yl)thio)ethoxy)ethoxy)acetyl)piperazin-1-yl)pyridin-2-yl)amino)-N,N-dimethyl-7H-pyrrolo[2,3-d]pyrimidine-6-carboxamide], under setting [1], the DC50 is 0.04 to 0.2 nM.

Consider `CC(=O)c1c(C)c2cnc(Nc3ccc(N4CCN(C(=O)CCCSc5cccc6c5C(=O)N(C5CCC(=O)NC5=O)C6=O)CC4)cn3)nc2n(C2CCCC2)c1=O` (centres unmarked) [SIAIS184087, 4-((4-(4-(6-((6-acetyl-8-cyclopentyl-5-methyl-7-oxo-7,8-dihydropyrido [2,3-d]pyrimidin-2-yl)amino)pyridin-3-yl)piperazin-1-yl)-4-oxobutyl)thio)-2-(2,6-dioxo Piperidin-3-yl)isoindoline-1,3-dione], for which the DC50 under setting [1] was 1 to 10 nM. As for `CN(C)C(=O)c1cc2cnc(Nc3ccc(N4CCN(C(=O)COCCSc5cccc6c5CN(C5CCC(=O)NC5=O)C6=O)CC4)cn3)nc2n1C1CCCC1` (centres unmarked) [SIAIS219106, 7-cyclopentyl-2-((5-(4-(2-(2-((2-(2,6-dioxopiperidin-3-yl)-1-oxoisoindolin-4-yl)thio)ethoxy)acetyl)piperazin-1-yl)pyridin-2-yl)amino)-N,N-dimethyl-7H-pyrrolo[2,3-d]pyrimidine-6-carboxamide], for the setting “read-out: DC50(nM)/T-47D cell line, 24 h drug treatment”, the DC50 lay in the range of 0.04 to 0.2 nM. Consider `CN(C)C(=O)c1cc2cnc(Nc3ccc(N4CCN(C(=O)CCSc5cccc6c5CN(C5CCC(=O)NC5=O)C6=O)CC4)cn3)nc2n1C1CCCC1` (centres unmarked) [SIAIS219087, 7-cyclopentyl-2-((5-(4-(3-((2-(2,6-dioxopiperidin-3-yl)-1-oxoisoindolin-4-yl)thio)propanoyl)piperazin-1-yl)pyridin-2-yl)amino)-N,N-dimethyl-7H-pyrrolo[2,3-d]pyrimidine-6-carboxamide], for which, under setting [1], the DC50 is below 1 nM. The same measure, in the same setting: in the case of `CN(C)C(=O)c1cc2cnc(Nc3ccc(N4CCN(C(=O)CCCSc5cccc6c5C(=O)N(C5CCC(=O)NC5=O)C6=O)CC4)cn3)nc2n1C1CCCC1` (centres unmarked) [SIAIS219102, 7-cyclopentyl-2-((5-(4-(4-((2-(2,6-dioxopiperidin-3-yl)-1,3-dioxoisoindolin-4-yl)thio)butanoyl)piperazin-1-yl)pyridin-2-yl)amino)-N,N-dimethyl-7H-pyrrolo[2,3-d]pyrimidine-6-carboxamide] it was 1 to 10 nM; in that of `CC(=O)c1c(C)c2cnc(Nc3ccc(N4CCN(C(=O)CCSc5cccc6c5CN(C5CCC(=O)NC5=O)C6=O)CC4)cn3)nc2n(C2CCCC2)c1=O` (centres unmarked) [SIAIS219052, 3-(4-((3-(4-(6-((6-acetyl-8-cyclopentyl-5-methyl-7-oxo-7,8-dihydropyrido[2,3-d]pyrimidin-2-yl)amino)pyridin-3-yl)piperazin-1-yl)-3-oxopropyl)thio)-1-oxoisoindolin-2-yl)piperidine-2,6-dione], below 1 nM. The same measure, in the same setting: in the case of `CN(C)C(=O)c1cc2cnc(Nc3ccc(N4CCN(C(=O)CSc5cccc6c5CN(C5CCC(=O)NC5=O)C6=O)CC4)cn3)nc2n1C1CCCC1` (centres unmarked) [SIAIS219086, 7-cyclopentyl-2-((5-(4-(2-((2-(2,6-dioxopiperidin-3-yl)-1-oxoisoindolin-4-yl)thio)acetyl)piperazin-1-yl)pyridin-2-yl)amino)-N,N-dimethyl-7H-pyrrolo[2,3-d]pyrimidine-6-carboxamide] it was below 1 nM. On the same count and under the same terms, with `CN(C)C(=O)c1cc2cnc(Nc3ccc(N4CCN(C(=O)COCCOCCOCCOCCOCCSc5cccc6c5CN(C5CCC(=O)NC5=O)C6=O)CC4)cn3)nc2n1C1CCCC1` (centres unmarked) [SIAIS219110, 7-cyclopentyl-2-((5-(4-(17-((2-(2,6-dioxopiperidin-3-yl)-1-oxoisoindolin-4-yl)thio)-3,6,9,12,15-pentaoxaheptadecanoyl)piperazin-1-yl)pyridin-2-yl)amino)-N,N-dimethyl-7H-pyrrolo[2,3-d]pyrimidine-6-carboxamide] the figure was 0.04 to 0.2 nM; with `Cc1nc2c(F)cc(-c3nc(Nc4ccc(CN5CCN(C(=O)CCCCCCCCCCSc6cccc7c6CN(C6CCC(=O)NC6=O)C7=O)CC5)cn4)ncc3F)cc2n1C(C)C` (centres unmarked) [SIAIS262170, 3-(4-((11-(4-((6-((5-fluoro-4-(4-fluoro-1-isopropyl-2-methyl-1H-benzo[d]imidazol-6-yl)pyrimidin-2-yl)amino)pyridin-3-yl)methyl)piperazin-1-yl)-11-oxoundecyl)thio)-1-oxoisoindolin-2-yl)piperidine-2,6-dione], 50 nM. `CN(C)C(=O)c1cc2cnc(Nc3ccc(N4CCN(C(=O)CCCCCCSc5cccc6c5CN(C5CCC(=O)NC5=O)C6=O)CC4)cn3)nc2n1C1CCCC1` (centres unmarked) [SIAIS219091, 7-cyclopentyl-2-((5-(4-(7-((2-(2,6-dioxopiperidin-3-yl)-1-oxoisoindolin-4-yl)thio)heptanoyl)piperazin-1-yl)pyridin-2-yl)amino)-N,N-dimethyl-7H-pyrrolo[2,3-d]pyrimidine-6-carboxamide]: under setting [1], the DC50 is below 1 nM. Same read-out and setting: with `Cc1nc2c(F)cc(-c3nc(Nc4ccc(CN5CCN(C(=O)CCCCCSc6cccc7c6CN(C6CCC(=O)NC6=O)C7=O)CC5)cn4)ncc3F)cc2n1C(C)C` (centres unmarked) [SIAIS262168, 3-(4-((6-(4-((6-((5-fluoro-4-(4-fluoro-1-isopropyl-2-methyl-1H-benzo[d]imidazol-6-yl)pyrimidin-2-yl)amino)pyridin-3-yl)methyl)piperazin-1-yl)-6-oxohexyl)thio)-1-oxoisoindolin-2-yl)piperidine-2,6-dione] the figure was 0.05 to 0.5 nM; with `CC(=O)c1c(C)c2cnc(Nc3ccc(N4CCN(C(=O)CCCCCCSc5cccc6c5CN(C5CCC(=O)NC5=O)C6=O)CC4)cn3)nc2n(C2CCCC2)c1=O` (centres unmarked) [SIAIS219055, 3-(4-((7-(4-(6-((6-acetyl-8-cyclopentyl-5-methyl-7-oxo-7,8-dihydropyrido[2,3-d]pyrimidin-2-yl)amino)pyridin-3-yl)piperazin-1-yl)-7-oxoheptyl)thio)-1-oxoisoindolin-2-yl)piperidine-2,6-dione], below 1 nM. Still for that read-out and setting: with `CC(=O)c1c(C)c2cnc(Nc3ccc(N4CCN(C(=O)CCCCCSc5cccc6c5CN(C5CCC(=O)NC5=O)C6=O)CC4)cn3)nc2n(C2CCCC2)c1=O` (centres unmarked) [SIAIS219054, 3-(4-((6-(4-(6-((6-acetyl-8-cyclopentyl-5-methyl-7-oxo-7,8-dihydropyrido[2,3-d]pyrimidin-2-yl)amino)pyridin-3-yl)piperazin-1-yl)-6-oxohexyl)thio)-1-oxoisoindolin-2-yl)piperidine-2,6-dione] the figure was below 1 nM.
